Measured values from the supplement of paper PMC10307832.

Experiments:
Experiment in all cases: relative viability (nuclei count vs DMSO), 5 days (fraction); higher = more cells survive
Daporinad + Crizotinib = compound: O=C(/C=C/c1cccnc1)NCCCCC1CCN(C(=O)c2ccccc2)CC1 [Daporinad] + C[C@@H](Oc1cc(-c2cnn(C3CCNCC3)c2)cnc1N)c1c(Cl)ccc(F)c1Cl [Crizotinib] (partner 1 µM)
Procedure, shortened: (§1)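 Lung cancer cell lines were pin-tool dosed in 1536-well plates on the day after seeding, with either a lone drug or a fixed anchor-drug dose plus five library-drug doses (not always all listed) in √10 steps. Nuclei were counted on 4× images after 5 days. Relative viability is the ratio of treated-well to vehicle-well nuclei counts, with each value a median of duplicate plates.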

R406 + Olaparib = compound: COc1cc(Nc2ncc(F)c(Nc3ccc4c(n3)NC(=O)C(C)(C)O4)n2)cc(OC)c1OC [R406] + O=C(c1cc(Cc2n[nH]c(=O)c3ccccc23)ccc1F)N1CCN(C(=O)C2CC2)CC1 [Olaparib] (partner 8 µM)
Procedure, shortened: as §1

Daporinad + OSI-027 = compound: O=C(/C=C/c1cccnc1)NCCCCC1CCN(C(=O)c2ccccc2)CC1 [Daporinad] + COc1cccc2cc(-c3nc([C@H]4CC[C@H](C(=O)O)CC4)n4ncnc(N)c34)[nH]c12 [OSI-027] (partner 0.5 µM)
Procedure, shortened: as §1

Daporinad + Trametinib = compound: O=C(/C=C/c1cccnc1)NCCCCC1CCN(C(=O)c2ccccc2)CC1 [Daporinad] + CC(=O)Nc1cccc(-n2c(=O)n(C3CC3)c(=O)c3c(Nc4ccc(I)cc4F)n(C)c(=O)c(C)c32)c1 [Trametinib] (partner 0.02 µM)
Procedure, shortened: as §1

| Cell Line | relative viability (Daporinad + Crizotinib; first compound 0.0005 µM) | relative viability (Daporinad + Crizotinib; first compound 0.001581 µM) | relative viability (Daporinad + Crizotinib; first compound 0.005 µM) | relative viability (Daporinad + Crizotinib; first compound 0.01581 µM) | relative viability (R406 + Olaparib; first compound 0.08 µM) | relative viability (R406 + Olaparib; first compound 0.253 µM) | relative viability (R406 + Olaparib; first compound 0.8 µM) | relative viability (R406 + Olaparib; first compound 2.53 µM) | relative viability (R406 + Olaparib; first compound 8 µM) | relative viability (Daporinad + OSI-027; first compound 0.0005 µM) | relative viability (Daporinad + OSI-027; first compound 0.001581 µM) | relative viability (Daporinad + OSI-027; first compound 0.005 µM) | relative viability (Daporinad + OSI-027; first compound 0.01581 µM) | relative viability (Daporinad + Trametinib; first compound 0.0005 µM) | relative viability (Daporinad + Trametinib; first compound 0.001581 µM) | relative viability (Daporinad + Trametinib; first compound 0.005 µM) | relative viability (Daporinad + Trametinib; first compound 0.01581 µM) |
| --- | --- | --- | --- | --- | --- | --- | --- | --- | --- | --- | --- | --- | --- | --- | --- | --- | --- |
| HCC-827 | 0.963 | 1.01 | 0.936 | 0.931 | 0.724 | 0.663 | 0.667 | 0.522 | 0.545 | 0.78 | 0.865 | 0.881 | 0.74 | 0.498 | 0.508 | 0.553 | 0.552 |
| HOP-62 | – | 1.05 | 0.994 | 0.789 | 0.252 | 0.415 | 0.575 | 0.517 | 0.495 | 0.812 | 0.935 | 0.877 | 0.665 | 0.453 | 0.427 | 0.484 | 0.422 |
| IA-LM | 0.734 | 0.917 | 1.05 | 0.82 | 0.835 | 1.03 | 0.913 | 0.986 | 0.882 | – | – | – | – | – | – | – | – |
| LC-2-ad | 0.501 | 0.513 | 0.491 | 0.46 | 0.728 | 0.809 | 0.694 | 0.699 | 0.45 | 0.832 | 1.12 | 1.06 | 1.01 | 0.907 | 0.983 | 0.863 | 0.914 |
| LCLC-97TM1 | 0.443 | 0.402 | 0.605 | 0.323 | 0.371 | 0.465 | 0.534 | 0.253 | 0.179 | 0.523 | 0.633 | 0.656 | 0.517 | 0.188 | 0.158 | 0.189 | 0.177 |
| LCLC-103H | 1.08 | 1.03 | 1.14 | 1.09 | 0.77 | 0.888 | 0.81 | 0.762 | 0.302 | 0.499 | 0.48 | 0.493 | 0.471 | 0.738 | 0.69 | 0.701 | 0.757 |
| LK-2 | 0.327 | 0.32 | 0.296 | 0.283 | 0.592 | 1.13 | 0.888 | 0.661 | 0.305 | 0.225 | 0.241 | 0.18 | 0.192 | 0.783 | 0.795 | 0.764 | 0.283 |
| LOU-NH91 | 0.782 | 0.801 | 0.862 | 0.913 | 0.898 | 0.956 | 0.934 | 0.658 | 0.478 | 0.732 | 0.779 | 0.772 | 0.83 | 0.797 | 0.847 | 0.922 | 0.941 |
| LU99A | 0.527 | 0.596 | 0.685 | 0.549 | 0.244 | 0.258 | 0.267 | 0.218 | 0.234 | 0.33 | 0.282 | 0.358 | 0.305 | 0.511 | 0.562 | 0.598 | 0.613 |
| LXF-289 | 0.784 | 0.899 | 0.848 | 0.854 | 1.08 | 1.18 | 1.12 | 1.02 | 0.219 | 0.731 | 0.855 | 0.89 | 0.89 | 0.569 | 0.663 | 0.689 | 0.681 |
| NCI-H23 | 0.744 | 0.667 | 0.678 | 0.398 | 0.277 | 0.271 | 0.236 | 0.263 | 0.139 | 0.544 | 0.472 | 0.637 | 0.545 | 0.395 | 0.382 | 0.412 | 0.342 |
| NCI-H322M | 0.847 | 1.03 | 0.985 | 0.592 | 0.654 | 0.695 | 0.826 | 0.641 | 0.488 | 0.526 | 0.617 | 0.613 | 0.52 | 0.507 | 0.484 | 0.504 | 0.441 |
| NCI-H358 | 0.693 | 0.709 | 0.684 | 0.562 | 0.562 | 0.617 | 0.632 | 0.279 | 0.209 | 0.664 | 0.794 | 0.886 | 0.77 | 0.135 | 0.152 | 0.15 | 0.18 |
| NCI-H522 | – | – | – | – | 0.518 | 0.578 | 0.713 | 0.636 | 0.511 | 0.612 | 0.942 | 0.762 | 0.667 | 0.906 | 0.753 | 0.67 | 0.835 |
| NCI-H1299 | 0.969 | 0.963 | 0.974 | 1.01 | 0.972 | 0.986 | 0.957 | 1.05 | 0.731 | – | – | – | – | – | – | – | – |
| NCI-H1395 | – | – | – | – | 0.455 | 0.475 | 0.444 | 0.421 | 0.362 | 0.644 | 0.64 | 0.71 | 0.739 | 1.04 | 1.04 | 1.14 | 1.06 |
| NCI-H1563 | 0.85 | 0.857 | 0.772 | 0.623 | – | – | – | – | – | 0.754 | 0.749 | 0.807 | 0.719 | – | – | – | – |
| NCI-H1648 | – | – | – | – | 0.758 | 1.06 | 0.906 | 0.886 | 0.884 | 0.231 | 0.26 | 0.262 | 0.244 | 0.469 | 0.418 | 0.417 | 0.447 |
| NCI-H1703 | 0.872 | 0.669 | 0.655 | 0.435 | 0.298 | 0.474 | 0.355 | 0.277 | 0.124 | – | – | – | – | – | – | – | – |
| NCI-H1793 | – | – | – | – | 0.781 | 0.794 | 0.946 | 0.356 | 0.144 | 0.25 | 0.252 | 0.343 | 0.254 | 0.362 | 0.453 | 0.525 | 0.389 |
| NCI-H2342 | – | – | – | – | 0.395 | 0.415 | 0.447 | 0.355 | 0.439 | 0.674 | 0.552 | 0.602 | 0.613 | 1.04 | 0.82 | 0.782 | 0.844 |
| SW 900 | – | – | – | – | 0.956 | 0.855 | 0.57 | 0.492 | 0.115 | 0.42 | 0.475 | 0.745 | 0.463 | 0.668 | – | 1.03 | 0.663 |
